Test results reported in patent publication US5391540A, “Substituted pyridine compounds” (Rohm and Haas Company, priority 1993, dated 1995).

Columns and labels:
Assay type in all cases: in vivo
Downy Brome = test: Pre-emergent herbicidal activity (Table A); conditions: Bromus tectorum, pre-emergence, Dobr, 11.2 kg/ha, 10-14 days, read-out: herbicidal rating (% inhibition)
How it was run: (§1)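 Percent inhibition per species, scored on a rating scale, after pre-emergent soil incorporation: test compound in acetone or water carrier mixed into cover soil, layered over seeded topsoil or vegetative propagules.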

Velvetleaf = test: Pre-emergent herbicidal activity (Table A); conditions: Abutilon theophrasti, pre-emergence, Vele, 11.2 kg/ha, 10-14 days, read-out: herbicidal rating (% inhibition)
How it was run: as §1

Morningglory = test: Pre-emergent herbicidal activity (Table A); conditions: Ipomoea, pre-emergence, Mogl, 11.2 kg/ha, 10-14 days, read-out: herbicidal rating (% inhibition)
How it was run: as §1

Yellow Nutsedge = test: Pre-emergent herbicidal activity (Table A); conditions: Cyperus, pre-emergence, Yens, 11.2 kg/ha, 10-14 days, read-out: herbicidal rating (% inhibition)
How it was run: as §1

Cocklebur = test: Pre-emergent herbicidal activity (Table A); conditions: Xanthium strumarium, pre-emergence, Cobu, 11.2 kg/ha, 10-14 days, read-out: herbicidal rating (% inhibition)
How it was run: as §1

Barnyardgrass = test: Pre-emergent herbicidal activity (Table A); conditions: Echinochloa crus-galli, pre-emergence, Bygr, 11.2 kg/ha, 10-14 days, read-out: herbicidal rating (% inhibition)
How it was run: as §1

Corn = test: plant injury after spraying emerged plants (Table D); set-up: scale not given here
Text: (§2) Topsoil (silt loam) is sieved through a screen having 1.27 cm openings. […] This mixture is steam sterilized and then placed in aluminum pans 6.985 cm deep having ten holes in the bottom each 0.635 cm in diameter. The soil mixture is compacted to a depth of 1.27 cm. from the top of the pan. A predetermined number of seeds of each of several dicotyledonous and monocotyledonous annual plant species and/or vegetative propagules for the perennial plant species are placed on the soil and pressed into the soil surface. The seeds and/or vegetative propagules are covered with 1.27 cm of a mixture of 50% topsoil and 50% of a mixture of Canadian sphagnum peat moss, vermiculite and a wetting agent. The pans are then placed on a capillary mat on a greenhouse bench and subirrigated as needed.
(§3) In the following Table D the legends used to identify the plant species are the same as those used in the preceding Table B.

Grso = test: as above; set-up: scale not given here
Text: as §2, §3

Lacg = test: as above; set-up: scale not given here
Text: as §2, §3

Sobe = test: as above; set-up: scale not given here
Text: as §2, §3

Grft = test: as above; set-up: scale not given here
Text: as §2, §3

Mogl = test: as above; set-up: scale not given here
Text: as §2, §3

Cobu = test: as above; set-up: scale not given here
Text: as §2, §3

Whez = test: as above; set-up: scale not given here
Text: as §2, §3

Bygr = test: as above; set-up: scale not given here
Text: as §2, §3

Dobr = test: as above
Text: Topsoil (silt loam) is sieved through a screen having 1.27 cm openings. In some of the tests the soil was mixed with fertilizer (1225 g/cu. m of 12/5/9 containing isobutylidene diurea), while in other tests the fertilizer was omitted. This mixture is steam sterilized and then placed in aluminum pans 6.985 cm deep having ten holes in the bottom each 0.635 cm in diameter. The soil mixture is compacted to a depth of 1.27 cm. from the top of the pan. A predetermined number of seeds of each of several dicotyledonous and monocotyledonous annual plant species and/or vegetative propagules for the perennial plant species are placed on the soil and pressed into the soil surface. The seeds and/or vegetative propagules are covered with 1.27 cm of a mixture of 50% topsoil and 50% of a mixture of Canadian sphagnum peat moss, vermiculite and a wetting agent. The pans are then placed on a capillary mat on a greenhouse bench and subirrigated as needed. After the plants reach the desired stage (9 to 14 days, 1 to 3 true leaf stage), each pan (except the control pans) is removed to a spraying chamber and sprayed by means of an atomizer, operating at a spray pressure of 170.3 kPa ([…]) at the application rates noted in Table D. In the spray solution is an amount of an emulsifying agent mixture (35% butylamine salt of dodecylbenzenesulfonic acid and 65% tall oil condensed with ethylene oxide in the ratio of 11 mols of ethylene oxide/mol of tall oil) to give a spray solution or suspension. The spray solution or suspension contains a sufficient amount of the candidate chemical in order to give application rates of the active ingredient corresponding to those shown in Table D below while applying a total amount of solution or suspension equivalent to 1870 L/Ha (200 gallons/acre). The pans are returned to the greenhouse and watered as before and the injury to the plants as compared to the control pans is observed at approximately 10-14 days (usually 11 days).
as §3

COC(=O)c1c(OC)nc(C(F)(F)F)c(C2SCCS2)c1CC(C)C [Compound 93, 3-pyridinecarboxylic acid, 5-(1,3-dithiolan-2-yl)-2-methoxy-4-(2-methylpropyl)-6-(trifluoromethyl)-, methyl ester]
inhibition at 11200 g/ha (Downy Brome): 75 to 100% | inhibition at 11200 g/ha (Velvetleaf): 75 to 100% | inhibition at 11200 g/ha (Morningglory): 75 to 100% | inhibition at 11200 g/ha (Yellow Nutsedge): 0 to 24% | inhibition at 11200 g/ha (Cocklebur): 0 to 24% | inhibition at 11200 g/ha (Barnyardgrass): 75 to 100% | plant injury rating, Corn (Corn; 0.0701 kg/ha): 0 | plant injury rating, Corn (Corn; 0.2803 kg/ha): 3 | plant injury rating, Corn (Corn; 1.1210 kg/ha): 3 | plant injury rating, Corn (Corn; 5.6050 kg/ha): 3 | plant injury rating, Grso (Grso; 0.0701 kg/ha): 0 | plant injury rating, Grso (Grso; 0.2803 kg/ha): 0 | plant injury rating, Grso (Grso; 1.1210 kg/ha): 0 | plant injury rating, Grso (Grso; 5.6050 kg/ha): 2 | plant injury rating, Lacg (Lacg; 0.2803 kg/ha): 2 | plant injury rating, Lacg (Lacg; 1.1210 kg/ha): 3 | plant injury rating, Lacg (Lacg; 5.6050 kg/ha): 3 | plant injury rating, Sobe (Sobe; 0.0701 kg/ha): 0 | plant injury rating, Sobe (Sobe; 0.2803 kg/ha): 1 | plant injury rating, Sobe (Sobe; 1.1210 kg/ha): 2 | plant injury rating, Sobe (Sobe; 5.6050 kg/ha): 3 | plant injury rating, Grft (Grft; 0.0701 kg/ha): 0 | plant injury rating, Grft (Grft; 0.2803 kg/ha): 0 | plant injury rating, Grft (Grft; 1.1210 kg/ha): 0 | plant injury rating, Grft (Grft; 5.6050 kg/ha): 1 | plant injury rating, Mogl (Mogl; 0.0701 kg/ha): 0 | plant injury rating, Mogl (Mogl; 0.2803 kg/ha): 2 | plant injury rating, Mogl (Mogl; 1.1210 kg/ha): 2 | plant injury rating, Mogl (Mogl; 5.6050 kg/ha): 3 | plant injury rating, Cobu (Cobu; 0.0701 kg/ha): 0 | plant injury rating, Cobu (Cobu; 0.2803 kg/ha): 0 | plant injury rating, Cobu (Cobu; 1.1210 kg/ha): 2 | plant injury rating, Cobu (Cobu; 5.6050 kg/ha): 3 | plant injury rating, Whez (Whez; 0.0701 kg/ha): 0 | plant injury rating, Whez (Whez; 0.2803 kg/ha): 0 | plant injury rating, Whez (Whez; 1.1210 kg/ha): 0 | plant injury rating, Whez (Whez; 5.6050 kg/ha): 0 | plant injury rating, Bygr (Bygr; 0.0701 kg/ha): 0 | plant injury rating, Bygr (Bygr; 0.2803 kg/ha): 0 | plant injury rating, Bygr (Bygr; 1.1210 kg/ha): 0 | plant injury rating, Bygr (Bygr; 5.6050 kg/ha): 2 | plant injury rating, Dobr (Dobr; 0.0701 kg/ha): 0 | plant injury rating, Dobr (Dobr; 0.2803 kg/ha): 0 | plant injury rating, Dobr (Dobr; 1.1210 kg/ha): 0 | plant injury rating, Dobr (Dobr; 5.6050 kg/ha): 0

COC(=O)c1c(OC)nc(C(F)(F)F)c(C2=NCCS2)c1CC(C)C [Compound 50, 3-pyridinecarboxylic acid, 5-(4,5-dihydro-2-thiazolyl)-2-methoxy-4-(2-methylpropyl)-6-(trifluoromethyl)-, methyl ester]
inhibition at 11200 g/ha (Downy Brome): 75 to 100% | inhibition at 11200 g/ha (Velvetleaf): 75 to 100% | inhibition at 11200 g/ha (Morningglory): 75 to 100% | inhibition at 11200 g/ha (Yellow Nutsedge): 75 to 100% | inhibition at 11200 g/ha (Cocklebur): 75 to 100% | inhibition at 11200 g/ha (Barnyardgrass): 75 to 100% | plant injury rating, Corn (Corn; 0.0701 kg/ha): 0 | plant injury rating, Corn (Corn; 0.2803 kg/ha): 0 | plant injury rating, Grso (Grso; 0.0701 kg/ha): 0 | plant injury rating, Grso (Grso; 0.2803 kg/ha): 0 | plant injury rating, Grso (Grso; 1.1210 kg/ha): 0 | plant injury rating, Lacg (Lacg; 0.2803 kg/ha): 3 | plant injury rating, Lacg (Lacg; 1.1210 kg/ha): 3 | plant injury rating, Lacg (Lacg; 5.3808 kg/ha): 3 | plant injury rating, Sobe (Sobe; 0.0701 kg/ha): 0 | plant injury rating, Sobe (Sobe; 0.2803 kg/ha): 1 | plant injury rating, Sobe (Sobe; 1.1210 kg/ha): 2 | plant injury rating, Sobe (Sobe; 5.3808 kg/ha): 3 | plant injury rating, Grft (Grft; 0.0701 kg/ha): 0 | plant injury rating, Grft (Grft; 0.2803 kg/ha): 1 | plant injury rating, Grft (Grft; 1.1210 kg/ha): 1 | plant injury rating, Grft (Grft; 5.3808 kg/ha): 2 | plant injury rating, Mogl (Mogl; 0.0701 kg/ha): 1 | plant injury rating, Mogl (Mogl; 0.2803 kg/ha): 2 | plant injury rating, Mogl (Mogl; 1.1210 kg/ha): 2 | plant injury rating, Mogl (Mogl; 5.3808 kg/ha): 3 | plant injury rating, Cobu (Cobu; 0.0701 kg/ha): 0 | plant injury rating, Cobu (Cobu; 0.2803 kg/ha): 1 | plant injury rating, Cobu (Cobu; 1.1210 kg/ha): 2 | plant injury rating, Cobu (Cobu; 5.3808 kg/ha): 3 | plant injury rating, Whez (Whez; 0.0701 kg/ha): 0 | plant injury rating, Whez (Whez; 0.2803 kg/ha): 0 | plant injury rating, Whez (Whez; 1.1210 kg/ha): 0 | plant injury rating, Whez (Whez; 5.3808 kg/ha): 0 | plant injury rating, Bygr (Bygr; 0.0701 kg/ha): 0 | plant injury rating, Bygr (Bygr; 0.2803 kg/ha): 0 | plant injury rating, Bygr (Bygr; 1.1210 kg/ha): 1 | plant injury rating, Dobr (Dobr; 0.0701 kg/ha): 0 | plant injury rating, Dobr (Dobr; 1.1210 kg/ha): 0 | plant injury rating, Dobr (Dobr; 5.3808 kg/ha): 0
